Measured values taken from a melting point compilation (Tetko et al.; mined from patent text by program, amines drawn as free bases though some values may be those of a salt).

Compound | melting point [°C]
[N-]=[N+]=Nc1cccc2cccc(O)c12 | 65 to 67
O=CNC1Cc2cccc3c2N(CCC3)C1=O (configuration not stated) | 140 to 143
CCOC(=O)c1cn(-c2nc(NC(C)(C)C)c(F)cc2F)c2c(Cl)c(F)c(F)cc2c1=O | 203 to 205
C[C@H](NC(=O)OCc1ccccc1)C(=O)N[C@@H](Cc1ccccc1)C(=O)OCc1ccccc1 | 118 to 119
COc1ccc(-c2cc(CN3CCNCC3)c(=O)n(CC3CC3)n2)cc1F | 112 to 118
COC(=O)c1ccc2c(Br)nn(C)c2c1 | 122 to 125
Cc1nc(-n2ccc3cc(O)ccc3c2=O)sc1C(=O)NCc1ccccc1 | 225 to 228
CCCCCCCCCCCCCCCCS(=O)(=O)OC1CN(C2CCC3(C)C(CCC4C3CCC3(C)C(C(C)CCCC(C)C)CCC43)C2)C1 (configuration not stated) | 64.5 to 68
O=C(O)c1cn(C2COC2)c2c(F)c(F)c(F)c(O)c2c1=O | 242 to 244
CCCCCCCN(CC)C(=O)CCCc1ccc(NS(C)(=O)=O)cc1 | 54 to 55
CCOC(=O)Nc1cc2c3ccccc3n(CC)c2cn1 | 217 to 218
NS(=O)(=O)c1nnc(NC(=O)c2ccccc2O)s1 | > 250
O=S1(=O)c2cccc3cccc(c23)N1CCN1CCC(Cc2cc3cc(F)ccc3[nH]2)CC1 | 154
CC(C)n1nc(-c2c(-c3ccccc3)nn3ccc(OCc4ccccc4)cc23)ccc1=O | 168
CC(=O)N(C(=O)OC(C)(C)C)c1ccc(-c2nc3n(Cc4c(F)cccc4F)cc(-c4ccccc4)c(=O)n3c2C)cc1 | 220 to 222
COC(=N)N1CCC(c2nn(-c3ccccc3)c3ccccc23)CC1 | 80 to 83
O=c1c2ccc(O)cc2[nH]n1Cc1ccccc1 | 206 to 207
COC(=O)Nc1c(C#N)cnn1-c1c(Cl)cc(SC(F)(F)F)cc1Cl | 145
CCCCCCCCCCCCCCCCCCc1ccc(S(=O)(=O)Cl)cc1 | 43 to 44
NC(=S)c1cc(Oc2ccc(C(F)(F)F)cc2Cl)ccc1[N+](=O)[O-] | 152
c1ccc(-n2c(Cn3ccnc3)nc3cccnc32)cc1 | 146 to 148
CC(C)(CO)NS(=O)(=O)c1ccc(Cl)c(NC(=O)c2cnn3c(C(F)F)cc(-c4ccc(C(F)(F)F)cc4)nc23)c1 | 234
O=S(=O)(c1ccccc1)c1ccc2cc[nH]c2c1 | 141 to 144

Compound | melting point [°C]
N#CC1(C#N)C2CCC(C2)C1(Cl)Cl (configuration not stated) | 148
COc1cc(Cc2cnc(NCCO)nc2N)cc(OC)c1OC | 146
CC[C@@H](C(C)C)[C@H](O)[C@H](O)[C@@H](C)[C@H]1CC[C@H]2[C@@H]3CCC4=CC(=O)CC[C@]4(C)[C@H]3CC[C@]12C | 192 to 194
O=Cc1c(O)cccc1OCCCCC(=O)O | 94
CCOC(N)=C(C#N)C(N)=S | 170 to 171
O=C(Cl)c1ccc(-c2nc(C(Cl)(Cl)Cl)nc(C(Cl)(Cl)Cl)n2)cc1 | 100 to 101
CC(=O)C1CCC2C3CCC4CC(OC(=O)OCC(Cl)(Cl)Cl)CCC4(C)C3C(NC(=O)OCC(Cl)(Cl)Cl)CC12C (configuration not stated) | 174 to 176
CC1(C)CC2(CC(C)(C)N1c1nc(N(CCO)CCO)nc(N3CCOCC3)n1)OCCO2 | 135 to 140
COc1cc(OC)c(C=CC(=O)c2ccc(S(N)(=O)=O)cc2)cc1C#Cc1ccccc1N | 167 to 169
COC(=O)c1nc(C)c(-c2ccnc3ccccc23)s1 | 116 to 117
COc1cc2c3c(c1)c(CCN1CCN(c4cc(C)ccn4)CC1)c(C)n3CCC2 | 104
Cc1cc(C)cc(Oc2ccc(-n3ccnc3)nn2)c1 | 170
Cn1cc(-c2cccc(Cl)c2)c(=O)c(-c2ccccc2Cl)c1 | 160 to 161
O=C(Nc1ccc(N2CC3CC3C2)nc1)c1cc2cc(F)ccc2n1Cc1cccc(F)c1 (configuration not stated) | 193 to 195
O=c1[nH]c2cc3[nH]c(-c4ccnnc4)nc3cc2o1 | 330
O=C(O)Cc1ccc(NC(=O)C(Cn2ccnc2)NS(=O)(=O)c2ccc(F)cc2)cc1 (racemic) | 162 to 165
COc1cc2c(cc1OC)C(=O)C(=CC=Cc1ccc(N(C)C)cc1)C2 | 210 to 213
CCc1nc2c(N)nc(C)c(C)c2n1CCOCCNC(=O)N1CCOCC1 | 182 to 184
Cc1c(C(=O)O)c(CC(=O)O)n(C)c1C(=O)c1ccc(Cl)cc1 | 253 to 254
O=S(=O)(Nc1cccc(CCOCc2csc(-c3ccc(C(F)(F)F)cc3)n2)c1)C(F)(F)F | 117 to 119
CCCCc1ncc(CNC(Cc2ccccc2)C(=O)O)n1Cc1ccccc1Cl (configuration not stated) | 141 to 143
Cn1cc2c(n1)c(N)nc1ccccc12 | 218 to 219
CC1(C)Oc2ccc(C#N)cc2C(Oc2ccncn2)C1(C)O (configuration not stated) | 103 to 105

Compound | melting point [°C]
FC(F)Oc1cccc(-c2ccc3nnn(Cc4ccc5ncccc5c4)c3n2)c1 | 122 to 125
CC(C)n1nc(-c2sc(C(=O)NCc3ccccn3)nc2-c2ccccc2F)ccc1=O | 190 to 191
COc1ccc2c(c1)c1c3c(c(-c4c(Cl)cccc4Cl)cc1n2CCC(N)=O)C(=O)NC3=O | 261 to 264
Nc1ccc(Cc2n[nH]c(=O)o2)cc1 | 267 to 268
c1ccc2c(c1)c1ccccc1n2-c1ccc2c(c1)Oc1ccc(-n3c4ccccc4c4ccccc43)cc1O2 | 348
CC(=O)Nc1ccc(/C=C/C(=O)/C=C/c2ccc(NC(C)=O)cc2)cc1 | 253 to 255
O=C(O)c1ccc(OCCNC(=O)C2Cc3ccccc3N2S(=O)(=O)c2ccc(-c3ccc(F)cc3Cl)cc2)cc1 (configuration not stated) | 90
CC(=O)N(c1cccc(C(F)(F)F)c1)c1cccc(C(F)(F)F)c1 | 73 to 74
CCOC(=O)C(CC#N)(C(=O)OCC)C1COC(=O)C1 (configuration not stated) | 77 to 78
CCOC(=O)c1cc2cc(OCCCS(C)(=O)=O)cc(NS(=O)(=O)c3ccccn3)c2[nH]1 | 194 to 195
NC(=O)NC1CCN(Cc2ccccc2)CC1 | 140
CC(C)(CC(O)(C(=O)Nc1ccccc1)C(F)(F)F)c1cc(F)ccc1O (configuration not stated) | 124 to 126
Cc1sc(N)c(C(=O)c2ccc(Cl)cc2)c1C | 122 to 123
Cc1[nH]c2ccc(Br)cc2c1Cc1cccnc1 | 188 to 190
NCCCCCC(=O)NC(CCCCN)C(=O)N(NC(=O)OCc1ccccc1)C(=O)OCc1ccccc1 (configuration not stated) | 167 to 168
Cc1c(NC(=O)CC(C)(C)C)cc2c(c1C)OC(C)(C)C2(O)c1cccc(CO)c1 (configuration not stated) | 169 to 171
COc1cc2c(cc1OC)CN(CC(O)CN1CCC(c3noc4cc(F)ccc34)CC1)CC2 (configuration not stated) | 153 to 154
O=C1CCCCC1C(C[N+](=O)[O-])c1ccc(OCc2ccccc2)cc1 (racemic) | 143 to 144
CCC(=O)CN1C(=O)C(NC(=O)Nc2cccc(C)c2)N=C(C)c2cccc(C)c21 (configuration not stated) | 125 to 128
Cc1cc(C)c(C(O)P(=O)(c2ccccc2)c2ccccc2)c(C)c1 (configuration not stated) | 152 to 153
CCn1nc(-c2ccccc2)c(C(C)=O)c(Nc2cccc3ccc(C)nc23)c1=O | 172 to 173
